Source: the supplement of paper PMC10307832

Tests used:
Assay in all cases: relative viability (nuclei count vs DMSO), 5 days (fraction); higher = more cells survive
[1] = compound: COCC[n+]1c2c(n(Cc3cnccn3)c1C)C(=O)c1ccccc1C2=O [YM155] + CS(=O)(=O)N1CCN(Cc2cc3nc(-c4cccc5[nH]ncc45)nc(N4CCOCC4)c3s2)CC1 [Pictilisib] (partner 1 µM)
Method in brief: (§1)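 Nuclei were stained with Hoechst during a one-step fixation (final 0.05% Triton X-100, 1% formaldehyde, 1 ug/ml Hoechst) carried out 5 days after dosing, then counted on 4× images. The cells, lung cancer lines in 1536-well plates, had been dosed by pin tool the day after seeding with one drug alone or a fixed anchor-drug dose plus five library-drug doses (not always all listed) in √10 steps. Relative viability is the nuclei count in treated wells divided by that in vehicle wells, and each value is the median of duplicate plates.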

[2] = compound: COCC[n+]1c2c(n(Cc3cnccn3)c1C)C(=O)c1ccccc1C2=O [YM155] + O=C(c1cc(Cc2n[nH]c(=O)c3ccccc23)ccc1F)N1CCN(C(=O)C2CC2)CC1 [Olaparib] (partner 8 µM)
Method in brief: as §1

[3] = compound: COCC[n+]1c2c(n(Cc3cnccn3)c1C)C(=O)c1ccccc1C2=O [YM155] + CC(=O)c1c(C)c2cnc(Nc3ccc(N4CCNCC4)cn3)nc2n(C2CCCC2)c1=O [Palbociclib] (partner 0.5 µM)
Method in brief: as §1

[4] = compound: CC(C)(C)c1cc(NC(=O)Nc2ccc(-c3cn4c(n3)sc3cc(OCCN5CCOCC5)ccc34)cc2)no1 [Quizartinib] + CC(=O)c1c(C)c2cnc(Nc3ccc(N4CCNCC4)cn3)nc2n(C2CCCC2)c1=O [Palbociclib] (partner 0.5 µM)
Method in brief: as §1

| Cell Line | relative viability ([1]; first compound 0.002 µM) | relative viability ([1]; first compound 0.006325 µM) | relative viability ([1]; first compound 0.02 µM) | relative viability ([1]; first compound 0.06325 µM) | relative viability ([2]; first compound 0.002 µM) | relative viability ([2]; first compound 0.006325 µM) | relative viability ([2]; first compound 0.02 µM) | relative viability ([2]; first compound 0.06325 µM) | relative viability ([3]; first compound 0.002 µM) | relative viability ([3]; first compound 0.006325 µM) | relative viability ([3]; first compound 0.02 µM) | relative viability ([3]; first compound 0.06325 µM) | relative viability ([4]; first compound 0.001 µM) | relative viability ([4]; first compound 0.003162 µM) | relative viability ([4]; first compound 0.01 µM) | relative viability ([4]; first compound 0.03162 µM) | relative viability ([4]; first compound 0.1 µM) |
| --- | --- | --- | --- | --- | --- | --- | --- | --- | --- | --- | --- | --- | --- | --- | --- | --- | --- |
| 201T | 0.703 | 0.677 | 0.672 | 0.707 | 0.813 | 0.845 | 0.826 | 0.874 | 0.367 | 0.339 | 0.361 | 0.369 | 0.322 | 0.371 | 0.361 | 0.401 | 0.401 |
| A549 | 0.511 | 0.454 | 0.378 | 0.0793 | 0.232 | 0.313 | 0.376 | 0.324 |  |  |  |  |  |  |  |  |  |
| A-427 | 0.592 | 0.736 | 0.802 | 0.705 | 0.735 | 0.556 | 0.714 | 0.294 | 0.532 | 0.502 | 0.567 | 0.293 | 0.425 | 0.48 | 0.523 | 0.485 | 0.505 |
| ABC-1 | 0.637 | 0.594 | 0.341 | 0.197 |  | 0.51 | 0.28 | 0.261 |  | 0.662 | 0.269 | 0.283 |  | 0.71 | 0.842 | 0.769 | 0.823 |
| BEN | 0.53 | 0.644 | 0.627 | 0.578 | 0.994 | 1.06 | 1.11 | 1.08 | 0.482 | 0.412 | 0.477 | 0.545 | 0.388 | 0.427 | 0.544 | 0.472 | 0.503 |
| CAL-12T |  | 0.566 | 0.557 | 0.392 | 0.782 | 0.735 | 0.625 | 0.331 | 0.45 | 0.582 | 0.489 | 0.433 | 0.362 | 0.404 | 0.607 | 0.348 | 0.0629 |
| COR-L23 | 0.692 | 0.636 | 0.408 | 0.175 | 0.322 | 0.298 | 0.187 | 0.147 | 0.279 | 0.272 | 0.217 | 0.152 | 0.236 | 0.269 | 0.34 | 0.244 | 0.244 |
| COR-L 105 | 0.332 | 0.493 | 0.447 | 0.404 | 0.584 | 0.715 | 0.72 | 0.538 | 0.371 | 0.388 | 0.424 | 0.401 | 0.395 | 0.397 | 0.396 |  | 0.418 |
| Calu-6 | 0.879 | 0.605 | 0.169 | 0.13 | 0.544 | 0.586 | 0.294 | 0.129 |  |  |  |  |  |  |  |  |  |
| ChaGo-K-1 | 0.671 | 0.65 | 0.63 | 0.718 | 0.364 | 0.38 | 0.43 | 0.385 | 0.951 | 0.909 | 0.881 | 0.918 |  | 0.922 | 0.918 | 0.949 | 0.904 |
| EBC-1 | 0.436 | 0.345 | 0.459 | 0.339 | 0.819 | 0.743 | 0.799 | 0.622 |  |  |  |  |  |  |  |  |  |
| EKVX | 0.422 | 0.497 | 0.439 | 0.339 | 0.912 | 0.875 | 0.854 | 0.401 | 0.386 | 0.348 | 0.42 | 0.215 |  | 0.354 | 0.397 | 0.451 | 0.283 |
| EMC-BAC-2 | 0.545 | 0.533 | 0.556 | 0.484 | 0.444 | 0.44 | 0.392 | 0.301 | 0.49 | 0.514 | 0.536 | 0.384 | 0.456 | 0.483 | 0.547 |  | 0.544 |
| EPLC-272H | 0.307 | 0.268 | 0.286 | 0.328 | 0.825 | 0.891 | 0.722 | 0.811 | 0.314 | 0.27 | 0.35 | 0.327 | 0.304 | 0.355 | 0.301 | 0.311 | 0.312 |
| H3255 | 0.483 | 0.5 | 0.477 | 0.424 | 0.577 | 0.581 | 0.578 | 0.508 | 0.324 | 0.305 | 0.351 | 0.319 | 0.318 | 0.358 | 0.329 | 0.305 | 0.309 |
| HARA | 0.371 | 0.397 | 0.533 | 0.461 |  | 0.815 | 0.76 | 0.935 | 0.235 | 0.262 | 0.328 | 0.211 | 0.233 | 0.23 | 0.261 | 0.248 | 0.259 |
| HCC-15 | 0.612 | 0.687 | 0.723 | 0.614 | 0.668 | 0.763 | 0.696 | 0.666 | 0.702 | 0.854 | 0.701 | 0.749 | 0.651 | 0.751 | 0.72 | 0.734 | 0.753 |
| HCC-44 | 0.565 | 0.469 | 0.674 | 0.726 | 0.969 | 1.03 | 0.992 | 1.04 | 0.975 | 1.01 | 0.928 | 1 | 0.943 | 1.04 | 0.997 | 0.921 | 0.949 |
| HCC-78 | 0.206 | 0.225 | 0.2 | 0.276 | 0.882 | 0.865 | 0.807 | 1 | 0.395 | 0.43 | 0.483 | 0.504 |  | 0.476 | 0.494 | 0.404 | 0.453 |
| HCC-366 | 0.376 | 0.124 | 0.125 | 0.134 | 0.368 | 0.329 | 0.375 | 0.275 | 0.37 | 0.412 | 0.439 | 0.27 | 0.318 | 0.384 | 0.374 | 0.382 | 0.436 |
| HCC-827 | 1 | 0.763 | 1 | 1.09 | 0.708 | 0.649 | 0.654 | 0.702 | 0.511 | 0.481 | 0.505 | 0.552 | 0.515 | 0.471 |  | 0.65 | 0.471 |
